{"source": "patent US20120309716A1", "about": "“Motor Function Improver” (Kao Corporation, priority 2010, published 2012)", "key": {"[1]": {"tested_on": "mice", "assay": "Swimming endurance (limit swimming time in flowing water pool)", "format": "in vivo, mouse", "settings": "0.25% sphingomyelin diet and exercise, five weeks after beginning of administration, flow rate 7 L/min", "excerpt": "(§1) After preliminary rearing for one week, nine-week old BALE/c male mice (Charles River Laboratories Japan Inc.) were classified into three groups (a Cont group, an Ex group, and an SPM group) (eight mice in each group) such that each group had the same body weight and swimming endurance (determined by measuring a limit swimming time by using a flowing water pool for mice (Kyodai Matsumoto type flowing water tank for measuring an amount of exercise: length×width×depth=90×45×45 cm, water depth: 38 cm, water temperature: 34° C. (Matsumoto, J Appl Physiol. 81: 1843-1849, 1996)) by the below-mentioned method).\nAfter grouping, the mice of the Cont group and the Ex group were fed with a control feed (10% lipid, 20% casein, 55.5% potato starch, 8.1% cellulose, 0.2% methionine, 2.2% vitamin (product name: Vitamin mix AIN-76, Oriental Bioservice, Inc.), and 4% mineral (product name: Mineral mix AIN-76, Oriental Bioservice, Inc.)), and the mice of the SPM group were fed with a test feed containing the sphingomyelin prepared in Production Example 1 (10% lipid, 20% casein, 55.25% potato starch, 8.1% cellulose, 0.2% methionine, 2.2% vitamin, 4% mineral, and 0.25% sphingomyelin) each for 13 weeks.\nDuring the feeding period, the limit swimming time was measured for the mice of the Ex group and the SPM group using the flowing water pool for mice once a week. […]"}, "[2]": {"tested_on": "PGC-1α", "assay": "Expression of gastrocnemius muscle mitochondrial function-related gene (quantitative PCR)", "format": "in vivo", "settings": "mouse gastrocnemius muscle after 13 weeks of rearing, 0.25% sphingomyelin test feed; control group 1.17 ± 0.10; p < 0.05", "excerpt": "(§2) After that, the mice were fed with a control feed (10% lipid, 20% casein, 55.5% potato starch, 8.1% cellulose, 0.2% methionine, 2.2% vitamin (product name: Vitamin mix AIN-76, Oriental Bioservice, Inc.), and 4% mineral (product name: Mineral mix AIN-76, Oriental Bioservice, Inc.)) or a test feed containing the sphingomyelin (10% lipid, 20% casein, […], 8.1% cellulose, 0.2% methionine, 2.2% vitamin, 4% mineral, and 0.25% sphingomyelin) each for nine weeks, and a respiratory gas analysis was carried out at the tenth week.\nAfter 13 weeks of rearing, the gastrocnemius muscle of a mouse of each group was collected, and RNA samples were obtained using RNeasy Fibrous Tissue Mini Kit (Qiagen). Each RNA sample was quantified, and a reverse transcription reaction was carried out in a reaction solution (1×PCR buffer II (Applied Biosystems), 5 mM MgCl2, 1 mM dNTP mix, 2.5 μM Oligo d [T]18 (New England Biolabs) and 1 U/ml RNase inhibitor (TAKARA BIO INC.) for 125 ng of RNA per reaction, to thereby obtain cDNA. The reaction was carried out under conditions of 42° C. and 10 min, 52° C. and 30 min, and 99° C. and 5 min.\nQuantitative PCR was carried out using the thus obtained cDNA as a template by ABI PRISM 7700 Sequence Detector (Applied Biosystems) The results were corrected based on the expression amount of 36B4 mRNA and represented as relative mRNA expression amounts. […]"}, "[3]": {"tested_on": "isolated soleus muscle", "assay": "Suppression of muscle strength deterioration after tail suspension treatment (isolated soleus muscle)", "format": "in vivo, mouse", "settings": "mice, 0.25% sphingomyelin diet for two weeks, then seven days of tail suspension; SPM group vs Cont group", "excerpt": "After preliminary rearing for one week, BALB/c male mice (nine-week old) were classified into three groups (a Normal group, a Cont group, and an SPM group) based on their weights (n=8 in each group). After grouping, the mice of the Normal group and the Cont group were fed with a control feed (10% lipid, 20% casein, 55.5% potato starch, 8.1% cellulose, 0.2% methionine, 2.2% vitamin, and 4% mineral), and the mice of the SPM group were fed with a test feed containing the sphingomyelin prepared in Production Example 1 (10% lipid, 20% casein, 55.25% potato starch, 8.1% cellulose, 0.2% methionine, 2.2% vitamin, 4% mineral, and 0.25% sphingomyelin) each for two weeks. The mice were fed with the test feed for two weeks, and the mice of the Cont group and the SPM group were subject to a tail suspension treatment to exclude a gravity load on their hindlimb muscles (such as soleus muscle). […] The mice of the Normal group were not subjected to the tail suspension treatment. After seven days of the tail suspension treatment, the mice were subjected to anatomy, and muscle strength of the isolated soleus muscle was measured. The muscle strength of the isolated muscle was measured in the same way as in Test Example 1."}, "[4]": {"tested_on": "isolated soleus muscle and extensor digitorum longus muscle", "assay": "Muscle strength of isolated soleus and extensor digitorum longus muscle after 13 weeks of rearing with exercise", "format": "in vivo, mouse", "settings": "mice, 0.25% sphingomyelin diet and exercise, electrical stimulation 40 Hz, 330 ms, 10V", "excerpt": "as §1, with “method). […] After 13 weeks of rearing, the mice were subjected to anatomy, muscle strength of isolated soleus muscle and extensor digitorum longus muscle was measured. Muscle strength of the isolated muscle was measured according to a method by Cannon et al. (Biomed Sci Instrum, 2005). […] Electrical stimulation of 40 Hz, 330 ms, and 10V was applied by using two platinum electrodes, and a signal obtained from the transducer was determined as muscle strength (g/mg muscle).” for “method).”"}, "[5]": {"tested_on": "mice", "assay": "Respiratory gas analysis (energy consumption and lipid combustion)", "format": "in vivo, mouse", "settings": "average in 24 hours after nine weeks of rearing, 0.25% sphingomyelin test feed", "excerpt": "After preliminary rearing for one week, nine-week old BALB/c mice (male: Oriental Bioservice, Inc.) were classified into two groups (eight mice in each group) such that each group had the same body weight.\nas §2\nThe mice were transferred to a chamber for respiratory gas analysis and habituated to the environment for 48 hours, and oxygen consumption level and respiratory quotient of each mouse were measured over 24 hours using Arco-2000 system (ARCOSYSTEM Inc.). […] From the oxygen consumption level and respiratory quotient, the lipid combustion level was calculated by an equation of Peronnet (Peronnet F, and Massicotte D (1991) Can J Sport Sci 16:23-29.)."}}}
{"substance": "sphingomyelin", "values": [{"measurement": "swimming endurance (limit swimming time)", "setting": "[1]", "result": "significant improvement in endurance"}, {"measurement": "PGC-1α relative mRNA expression amount (corrected based on 36B4 mRNA)", "setting": "[2]", "result": "1.50 ± 0.15"}, {"measurement": "muscle strength of the isolated soleus muscle", "setting": "[3]", "result": "significantly higher value"}, {"measurement": "muscle strength of the extensor digitorum longus muscle", "setting": "[4]", "result": "significantly higher values"}, {"measurement": "muscle strength of the soleus muscle", "setting": "[4]", "result": "significantly higher values"}, {"measurement": "Lipid combustion level", "setting": "[5]; calculated by equation of Peronnet, control group 5.4 ± 0.7, p < 0.05", "result": "7.5 ± 0.7", "unit": "mg/kg/min"}, {"measurement": "Oxygen consumption level", "setting": "[5]; control group 55.0 ± 1.0, p < 0.05", "result": "58.2 ± 0.8", "unit": "mL/min/kg"}]}
